Source: US20030232114A1, “Method for liquid enrichment with oxygen and applications of enriched liquids” (priority 2002, published 2003)

Tested on: rats having a myocardial infarction due to a restriction of the coronaries
Test: Oxygen consumption in damaged tissues of rats with myocardial infarction (acute occlusion of blood vessels)
Format: in vivo
Settings: conventional oxygen treatment by inhalation by means of a cannula, monitored for five days
Method: The oxygen enriched solutions of the invention were tested on experimental animals subjected to an acute occlusion of blood vessels which provoked degenerative changes of the interested tissues.
An oxygen enriched physiological solution of 0.3 cc having an oxygen partial pressure of 2 bar was intravenously administered at a rate of 1 g/min twice a days to a first group of 5 rats having a myocardial infarction due to a restriction of the coronaries. A second group of rats with the same disease, was subjected to a conventional oxygen treatment by inhalation by means of a cannula.
The results of the treatment were monitored and scheduled for five days. The first group of animals, treated by administering a solution in accordance with an embodiment of the present invention consumed 20% of oxygen in the damaged tissues whereas the second group which received the oxygen by inhalation consumed only 5% of oxygen in the damaged tissues.

`O=O` [oxygen] was tested, and the “oxygen consumed in the damaged tissues” value was 5%.
